# What was measured:
# KRAS (G12C)::SOS1 = KRAS (G12C)::SOS1 (Homo sapiens (Human), UniProt P01116, C118S/C51S/C80L/G12C); assay: KRAS::SOS1 AlphaScreen binding assay, KRAS G12C
# Procedure, shortened: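 KRAS 1-169 (biotinylated avi-tag) with GST-SOS1 564-1049 and 10 µM GDP in PBS/0.1% BSA/0.05% Tween 20: WT and G13D 10 nM each with 10 nM SOS1; G12D 10 nM and G12C 7.5 nM with 5 nM SOS1. After 30 min, glutathione acceptor/streptavidin donor beads were added for 60 min at RT in the dark, then AlphaScreen read; 4-parameter IC50.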
# AsPC-1 cells = assay: AsPC-1 CTG proliferation assay (120 h) (pancreatic cancer, G12D); assay type: cell-based; conditions: Homo sapiens, ASPC1
# Procedure, shortened: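 AsPC-1 cells (KRAS G12D), 2000/well in RPMI with 10% FCS, seeded overnight, then treated with compound for 120 h at 37 °C. Viability by CellTiter-Glo luminescence as percent of DMSO control. IC50 from a four-parameter non-linear fit.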
# GP2D cells = assay: GP2D proliferation assay (120 h) (colorectal cancer, G12D); assay type: cell-based
# Method: GP2D Proliferation Assay (120 h) (Colorectal Cancer, G12D)
# GP2D cells (ATCC No. CRL-5807) are dispensed into white 384-well plates, flat and white bottom (Perkin Elmer, 6007680) at a density of 500 cells per well in 40 μl DMEM (Sigma, D6429)+1×GlutaMAX (Gibco, 35050038)+10% FCS (fetal calf serum). […] Compounds (10 mM stock in DMSO) are added at logarithmic dose series using the HP Digital Dispenser D300 (Tecan), including DMSO controls and normalizing for added DMSO. For the TO time point measurement, untreated cells are analyzed at the time of compound addition. Plates are incubated for 120 h, and cell viability is measured using CellTiter-Glo luminescent cell viability reagent (Promega product code G7570). Viability (stated as percent of control) is defined as relative luminescence units RLU of each well divided by the RLU of cells in DMSO controls. IC50 values are determined from viability measurements by non-linear regression using a four parameter model.
# KRAS (G12C)::SOS1, sequence (P01116 other isoform, or with tags, fused parts or gaps G12C/C51S/C80L/C118S): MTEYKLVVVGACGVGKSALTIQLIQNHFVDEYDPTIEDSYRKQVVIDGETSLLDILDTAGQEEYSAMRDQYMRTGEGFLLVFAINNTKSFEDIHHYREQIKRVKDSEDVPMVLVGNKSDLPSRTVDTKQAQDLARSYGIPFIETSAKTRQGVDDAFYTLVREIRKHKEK
Compound,IC50 (KRAS (G12C)::SOS1),IC50 (AsPC-1 cells),IC50 (GP2D cells)
C[C@H](Oc1cc(-c2cn(C)nn2)nc(-c2onc3c2CCC[C@@]32CCCc3sc(N)c(C#N)c32)n1)[C@@H]1CCCN1C [I-16],2 nM,,673 nM
C[C@H](Oc1cc(-n2ccc(-c3cnccn3)n2)nc(-c2noc3c2CCC[C@@]32CCCc3sc(N)c(C#N)c32)n1)[C@@H]1CCCN1C [II-130],2 nM,1080 nM,233 nM
C[C@H](Oc1cc(-n2cc3c(n2)CCN(C)C3)nc(-c2noc3c2CCC[C@@]32CCCc3sc(N)c(C#N)c32)n1)[C@@H]1CCCN1C [II-141],2 nM,244 nM,4 nM
C[C@H](Oc1cc(N2CCOC2=O)nc(-c2noc3c2CCC[C@@]32CCCc3sc(N)c(C#N)c32)n1)[C@@H]1CCCN1C [II-143],2 nM,1510 nM,59 nM
C[C@H](Oc1cc(-c2ccn(C)n2)nc(-c2noc3c2CCC[C@@]32CCCc3sc(N)c(C#N)c32)n1)[C@@H]1C[C@H](F)CN1C [II-144],3 nM,7100 nM,> 1000 nM
C[C@H](Oc1cc(N2CCNC3(COC3)C2)nc(-c2noc3c2CCC[C@@]32CCCc3sc(N)c(C#N)c32)n1)[C@@H]1C[C@@H](F)CN1C [II-150],2 nM,27 nM,1 nM
CO[C@@H]1C[C@@H]([C@H](C)Oc2cc(N3CCN(C)C4(CC4)C3)nc(-c3noc4c3CCC[C@@]43CCCc4sc(N)c(C#N)c43)n2)N(C)C1 [II-152],7 nM,526 nM,13 nM
CO[C@@H]1C[C@@H]([C@H](C)Oc2cc(N3CCN(C)C4(COC4)C3)nc(-c3noc4c3CCC[C@@]43CCCc4sc(N)c(C#N)c43)n2)N(C)C1 [II-153],3 nM,577 nM,14 nM
C[C@H](Oc1cc(-n2cc3c(n2)CNC3)nc(-c2noc3c2CCC[C@@]32CCCc3sc(N)c(C#N)c32)n1)[C@@H]1C[C@@H](F)CN1C [II-154],2 nM,1010 nM,39 nM
C[C@H](Oc1nc(-c2noc3c2CCC[C@@]32CCCc3sc(N)c(C#N)c32)nc(N2CCNC3(CC3)C2)c1F)[C@@H]1C[C@@H](F)CN1C [II-155],2 nM,11 nM,1 nM
C[C@H](Oc1nc(-c2noc3c2CCC[C@@]32CCCc3sc(N)c(C#N)c32)nc(N2CCNC3(CC3)C2)c1Cl)[C@@H]1C[C@@H](F)CN1C [II-156],2 nM,86 nM,1 nM
C[C@H](Oc1nc(-c2noc3c2CCC[C@@]32CCCc3sc(N)c(C#N)c32)nc(N2C[C@H](C)NC3(CC3)C2)c1F)[C@@H]1C[C@@H](F)CN1C [II-157],2 nM,129 nM,2 nM
C[C@@H]1CN(c2nc(-c3noc4c3CCC[C@@]43CCCc4sc(N)c(C#N)c43)nc(O[C@@H](C)[C@@H]3C[C@@H](F)CN3C)c2F)CC2(CC2)N1 [II-158],2 nM,256 nM,9 nM
C[C@H](Oc1cc(C2=CCNCC2)nc(-c2noc3c2CCC[C@@]32CCCc3sc(N)c(C#N)c32)n1)[C@@H]1CCCN1C [II-164],2 nM,483 nM,23 nM
C[C@H](Oc1cc(N2CCNC3(CC3)C2)nc(-c2noc3c2CCC[C@@]32CCCc3sc(N)c(C#N)c32)n1)[C@@H]1C[C@@H](F)CN1C [II-165],3 nM,25 nM,1 nM
CC(C)N1CCCN(c2cc(-n3ccnc3)nc(-c3noc4c3CCC[C@@]43CCCc4sc(N)c(C#N)c43)n2)[C@@H](C)C1 [II-169],3 nM,3730 nM,1870 nM
C[C@H](Oc1cc(N2CCN(C)C3(CC3)C2)nc(-c2noc3c2CCC[C@@]32CCCc3sc(N)c(C#N)c32)n1)[C@@H]1CCCN1C [II-171],5 nM,295 nM,5 nM
C[C@H](Oc1cc(-n2cc3c(n2)CN(C)C3)nc(-c2noc3c2CCC[C@@]32CCCc3sc(N)c(C#N)c32)n1)[C@@H]1CCCN1C [II-174],2 nM,103 nM,3 nM
CCN1CCN(c2cc(O[C@@H](C)[C@@H]3C[C@@H](F)CN3C)nc(-c3noc4c3CCC[C@@]43CCCc4sc(N)c(C#N)c43)n2)CC12CC2 [II-185],21 nM,190 nM,15 nM
CO[C@H]1CCN(C)[C@@H]1[C@H](C)Oc1cc(N2CCN(C)C3(CC3)C2)nc(-c2noc3c2CCC[C@@]32CCCc3sc(N)c(C#N)c32)n1 [II-186],3 nM,38 nM,2 nM

# Further lines, results first:
IC50 (KRAS (G12C)::SOS1),IC50 (AsPC-1 cells),IC50 (GP2D cells),Compound
2 nM,235 nM,1 nM,C[C@H](Oc1cc(N2CCNC[C@]23CCOC3)nc(-c2onc3c2CCC[C@@]32CCCc3sc(N)c(C#N)c32)n1)[C@@H]1CCCN1C [I-12]
2 nM,2700 nM,301 nM,C[C@H](Oc1cc(-c2cccc(C(N)=O)c2)nc(-c2noc3c2CCC[C@@]32CCCc3sc(N)c(C#N)c32)n1)[C@@H]1CCCN1C [II-133]
2 nM,376 nM,11 nM,C[C@H](Oc1cc(N2CCN(C)C3(COC3)C2)nc(-c2noc3c2CCC[C@@]32CCCc3sc(N)c(C#N)c32)n1)[C@@H]1C[C@@H](F)CN1C [II-148]
8 nM,257 nM,8 nM,C[C@H](Oc1cc(N2CCN(C)C3(CC3)C2)nc(-c2noc3c2CCC[C@@]32CCCc3sc(N)c(C#N)c32)n1)[C@@H]1C[C@@H](F)CN1C [II-149]
8 nM,714 nM,32 nM,C[C@H](Oc1cc(N2CCN(C)C3(CCOC3)C2)nc(-c2noc3c2CCC[C@@]32CCCc3sc(N)c(C#N)c32)n1)[C@@H]1C[C@@H](F)CN1C (some centres unmarked) [II-151]
3 nM,922 nM,30 nM,C[C@H](Oc1cc(N2CCN[C@@H](C)C2)nc(-c2noc3c2CCC[C@@]32CCCc3sc(N)c(C#N)c32)n1)[C@@H]1CCCN1C [II-162]
2 nM,778 nM,12 nM,C[C@H](Oc1cc(-n2cc3c(n2)CNC3)nc(-c2noc3c2CCC[C@@]32CCCc3sc(N)c(C#N)c32)n1)[C@@H]1CCCN1C [II-168]
5 nM,1210 nM,107 nM,C[C@H](Oc1cc(N2C[C@H](C)N(C)[C@@H](C)C2)nc(-c2noc3c2CCC[C@@]32CCCc3sc(N)c(C#N)c32)n1)[C@@H]1CCCN1C [II-173]
15 nM,851 nM,50 nM,C[C@H](Oc1nc(-c2noc3c2CCC[C@@]32CCCc3sc(N)c(C#N)c32)nc(N2CCN(C)C3(CC3)C2)c1Cl)[C@@H]1C[C@@H](F)CN1C [II-176]
2 nM,30 nM,1 nM,CO[C@@H]1C[C@@H]([C@H](C)Oc2cc(N3CCNC4(CC4)C3)nc(-c3noc4c3CCC[C@@]43CCCc4sc(N)c(C#N)c43)n2)N(C)C1 [II-187]
1 nM,305 nM,31 nM,C[C@H](Oc1cc(-n2ccc(C(=O)N[C@@H]3CCOC3)n2)nc(-c2noc3c2CCC[C@@]32CCCc3sc(N)c(C#N)c32)n1)[C@@H]1CCCN1C [II-192]
2 nM,483 nM,137 nM,C[C@H](Oc1cc(-n2cc3ccn([C@@H]4CCOC4)c(=O)c3n2)nc(-c2noc3c2CCC[C@@]32CCCc3sc(N)c(C#N)c32)n1)[C@@H]1CCCN1C [II-203]
1 nM,508 nM,122 nM,C[C@H](Oc1cc(-n2cc3ccn(C[C@H]4CCOC4)c(=O)c3n2)nc(-c2noc3c2CCC[C@@]32CCCc3sc(N)c(C#N)c32)n1)[C@@H]1CCCN1C [II-204]

# From patent publication US20240174690A1, “ANNULATED 2-AMINO-3-CYANO THIOPHENES AND DERIVATIVES FOR THE TREATMENT OF CANCER” (BOEHRINGER INGELHEIM INTERNATIONAL GMBH, priority 2021, published 2024)
